Measurements taken from patent publication US20240101531A1, “PYRIDINAMINE DERIVATIVES AND THEIR USE AS POTASSIUM CHANNEL MODULATORS” (Xenon Pharmaceuticals Inc., priority 2022, published 2024).
Structures can show the parent of a compound that is named as a salt.

Biological target: human KV7.2/KV7.3 (Homo sapiens (Human), UniProt O43525+O43526)
Assay: Potassium flux assay (IPG-2 AM dye)
Format: cell-based
Conditions: TREX HEK 293 or HEK 293 cells expressing human KV7.2/KV7.3; arithmetic mean values
Procedure, shortened: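 EC50 from 16 concentrations (2-fold dilutions, top 30 μM), scaled between DMSO baseline and a known KV7.x modulator maximum. Signal is IPG-2 AM fluorescence (ex 530/em 558 nm) after 10 mM KCl challenge buffer addition, following 20 min room-temperature compound exposure of HEK 293 or TREX HEK 293 cells stably expressing human KV7.2/KV7.3.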

Row | EC50 [µM] | Compound
1 | < 1 | Clc1ccc(Nc2nccc3cc(OC4CCCOC4)ccc23)cn1 (stereo not drawn) [Example 216, N-(6-chloropyridin-3-yl)-6-((tetrahydro-2H-pyran-3-yl)oxy)isoquinolin-1-amine]
2 | 1 to 10 | Clc1ccc(Nc2nccc3cc(OCC4CCCO4)ccc23)cn1 (stereo not drawn) [Example 217, N-(6-chloropyridin-3-yl)-6-((tetrahydrofuran-2-yl)methoxy)isoquinolin-1-amine]
3 | < 1 | Cc1ncc(Nc2nccc3cc(OCC4(C)COC4)ccc23)cn1 [Example 218, 6-((3-methyloxetan-3-yl)methoxy)-N-(2-methylpyrimidin-5-yl)isoquinolin-1-amine]
4 | 1 to 10 | COC1(COc2ccc3c(Nc4cnc(C)nc4)nccc3c2)COC1 [Example 219, 6-((3-methoxyoxetan-3-yl)methoxy)-N-(2-methylpyrimidin-5-yl)isoquinolin-1-amine formate]
5 | < 1 | COC1(COc2ccc3c(Nc4ccc(Cl)nc4)nccc3c2)COC1 [Example 220, N-(6-chloropyridin-3-yl)-6-((3-methoxyoxetan-3-yl)methoxy)isoquinolin-1-amine]
6 | 1 to 10 | Cc1ncc(Nc2nccc3cc(OCC4COC4)ccc23)cn1 [Example 221, N-(2-methylpyrimidin-5-yl)-6-(oxetan-3-ylmethoxy)isoquinolin-1-amine]
7 | 1 to 10 | Cc1ncc(Nc2nccc3cc(OCc4ccon4)ccc23)cn1 [Example 222, 6-(isoxazol-3-ylmethoxy)-N-(2-methylpyrimidin-5-yl)isoquinolin-1-amine]
8 | < 1 | Clc1ccc(Nc2nccc3cc(OCC4COC4)ccc23)cn1 [Example 223, N-(6-chloropyridin-3-yl)-6-(oxetan-3-ylmethoxy)isoquinolin-1-amine]
9 | < 1 | C[C@@](O)(COc1ccc2c(Nc3ccc(Cl)nc3)nccc2c1)C(F)(F)F [Example 224, (R)-3-((1-((6-chloropyridin-3-yl)amino)isoquinolin-6-yl)oxy)-1,1,1-trifluoro-2-methylpropan-2-ol]
10 | 1 to 10 | C[C@](O)(COc1ccc2c(Nc3ccc(Cl)nc3)nccc2c1)C(F)(F)F [Example 225, (S)-3-((1-((6-chloropyridin-3-yl)amino)isoquinolin-6-yl)oxy)-1,1,1-trifluoro-2-methylpropan-2-ol]
11 | 1 to 10 | NC(COc1ccc2c(Nc3ccc(Cl)nc3)nccc2c1)C(F)(F)F (stereo not drawn) [Example 226, 6-(2-amino-3,3,3-trifluoropropoxy)-N-(6-chloropyridin-3-yl)isoquinolin-1-amine]
12 | 1 to 10 | FC1(F)CN[C@@H](COc2ccc3c(Nc4ccc(Cl)nc4)nccc3c2)C1 [Example 227, (R)—N-(6-chloropyridin-3-yl)-6-((4,4-difluoropyrrolidin-2-yl)methoxy)isoquinolin-1-amine trifluoroacetate]
13 | 1 to 10 | Cc1ncc(Nc2nccc3cc(OCC4(C#N)COC4)ccc23)cn1 [Example 228, 3-(((1-((2-methylpyrimidin-5-yl)amino)isoquinolin-6-yl)oxy)methyl)oxetane-3-carbonitrile]
14 | 1 to 10 | Fc1c(OCC2CC2)ccc2c(Nc3ccc(Cl)nc3)nccc12 [Example 229, N-(6-chloropyridin-3-yl)-6-(cyclopropylmethoxy)-5-fluoroisoquinolin-1-amine]
15 | 10 to 30 | Clc1ccc(Nc2nccc3cc(NCC4CC4)ccc23)cn1 [Example 230, N^1-(6-chloropyridin-3-yl)-N^6-(cyclopropylmethyl)isoquinoline-1,6-diamine formate]
16 | < 1 | FC(F)(F)C1(COc2ccc3c(Nc4ccc(Cl)nc4)nccc3c2)CC1 [Example 231, N-(6-chloropyridin-3-yl)-6-((1-(trifluoromethyl)cyclopropyl)methoxy)isoquinolin-1-amine formate]
17 | 1 to 10 | Fc1c(NCC2CC2)ccc2c(Nc3ccc(Cl)nc3)nccc12 [Example 232, N^1-(6-chloropyridin-3-yl)-N^6-(cyclopropylmethyl)-5-fluoroisoquinoline-1,6-diamine]
18 | 10 to 30 | Cc1ncc(Nc2nccc3c(F)c(OCC4CC4)ccc23)cn1 [Example 233, 6-(cyclopropylmethoxy)-5-fluoro-N-(2-methylpyrimidin-5-yl)isoquinolin-1-amine]
19 | < 1 | N#CC1(COc2ccc3c(Nc4ccc(Cl)nc4)nccc3c2)CC(F)(F)C1 [Example 234, 1-(((1-((6-chloropyridin-3-yl)amino)isoquinolin-6-yl)oxy)methyl)-3,3-difluorocyclobutane-1-carbonitrile]
20 | < 1 | Cc1ncc(Nc2nccc3cc(OCC4(C#N)CC(F)(F)C4)ccc23)cn1 [Example 235, 3,3-difluoro-1-(((1-((2-methylpyrimidin-5-yl)amino)isoquinolin-6-yl)oxy)methyl)cyclobutane-1-carbonitrile formate]
21 | 1 to 10 | COCCOCCOc1ccc2c(Nc3ccc(Cl)nc3)nccc2c1 [Example 236, N-(6-chloropyridin-3-yl)-6-(2-(2-methoxyethoxy)ethoxy)isoquinolin-1-amine]

Row | EC50 [µM] | Compound
22 | < 1 | C[C@H](Oc1ccc2c(Nc3ccc(Cl)nc3)nccc2c1)c1ccncc1 [Example 237, (S)—N-(6-chloropyridin-3-yl)-6-(1-(pyridin-4-yl)ethoxy)isoquinolin-1-amine]
23 | < 1 | OCC1(COc2ccc3c(Nc4ccc(Cl)nc4)nccc3c2)CC1 [Example 238, (1-(((1-((6-chloropyridin-3-yl)amino)isoquinolin-6-yl)oxy)methyl)cyclopropyl)methanol]
24 | < 1 | FC1(COc2ccc3c(Nc4ccc(Cl)nc4)nccc3c2)CCOCC1 [Example 239, N-(6-chloropyridin-3-yl)-6-((4-fluorotetrahydro-2H-pyran-4-yl)methoxy)isoquinolin-1-amine]
25 | 1 to 10 | OC(COc1ccc2c(Nc3ccc(Cl)nc3)nccc2c1)C(F)(F)F (stereo not drawn) [Example 240, 3-((1-((6-chloropyridin-3-yl)amino)isoquinolin-6-yl)oxy)-1,1,1-trifluoropropan-2-ol]
26 | < 1 | Cc1ncc(Nc2nccc3cc(OCc4cnoc4)ccc23)cn1 [Example 241, 6-(isoxazol-4-ylmethoxy)-N-(2-methylpyrimidin-5-yl)isoquinolin-1-amine]
27 | < 1 | Clc1ncc(Nc2nccc3cc(OCc4cnoc4)ccc23)cn1 [Example 242, N-(2-chloropyrimidin-5-yl)-6-(isoxazol-4-ylmethoxy)isoquinolin-1-amine]
28 | 10 to 30 | Oc1ccc2c(Nc3cnc(Cl)nc3)nccc2c1 [Example 243, 1-((2-chloropyrimidin-5-yl)amino)isoquinolin-6-ol]
29 | 1 to 10 | Cn1cc(CNc2ccc3c(Nc4ccc(Cl)nc4)nccc3c2)cn1 [Example 244, N′-(6-chloropyridin-3-yl)-N^6-((1-methyl-1H-pyrazol-4-yl)methyl)isoquinoline-1,6-diamine]
30 | 1 to 10 | CC1(CNc2ccc3c(Nc4ccc(Cl)nc4)nccc3c2)COC1 [Example 245, N′-(6-chloropyridin-3-yl)-N^6-((3-methyloxetan-3-yl)methyl)isoquinoline-1,6-diamine]
31 | 1 to 10 | CN(C)C(=O)/C=C/c1ccc2c(Nc3ccc(Cl)nc3)nccc2c1 [Example 246, (E)-3-(1-((6-chloropyridin-3-yl)amino)isoquinolin-6-yl)-N,N-dimethylacrylamide]
32 | 10 to 30 | Fc1cc2c(Nc3ccc(Cl)nc3)nccc2cc1OCC1(F)CC1 [Example 247, N-(6-chloropyridin-3-yl)-7-fluoro-6-((1-fluorocyclopropyl)methoxy)isoquinolin-1-amine]
33 | 1 to 10 | Clc1ccc(Nc2nccc3cc(CNc4cn[nH]c4)ccc23)cn1 [Example 248, 6-(((1H-pyrazol-4-yl)amino)methyl)-N-(6-chloropyridin-3-yl)isoquinolin-1-amine]
34 | 1 to 10 | Cn1cc(OCc2ccc3c(Nc4ccc(Cl)nc4)nccc3c2)cn1 [Example 249, N-(6-chloropyridin-3-yl)-6-(((1-methyl-1H-pyrazol-4-yl)oxy)methyl)isoquinolin-1-amine]
35 | < 1 | CN(Cc1ccc2c(Nc3ccc(Cl)nc3)nccc2c1)c1cn[nH]c1 [Example 250, N-(6-chloropyridin-3-yl)-6-((methyl(1H-pyrazol-4-yl)amino)methyl)isoquinolin-1-amine]
36 | < 1 | Cn1cc(COc2cnc3c(Nc4ccc(Cl)nc4)nccc3c2)cn1 [Example 252, N-(6-chloropyridin-3-yl)-3-((1-methyl-1H-pyrazol-4-yl)methoxy)-1,7-naphthyridin-8-amine]
37 | < 1 | Cn1cc(COc2cnc3c(Nc4cnc(Cl)nc4)nccc3c2)cn1 [Example 253, N-(2-chloropyrimidin-5-yl)-3-((1-methyl-1H-pyrazol-4-yl)methoxy)-1,7-naphthyridin-8-amine]
38 | < 1 | N#CC1(COc2cnc3c(Nc4cnc(Cl)nc4)nccc3c2)CC1 [Example 254, 1-(((8-((2-chloropyrimidin-5-yl)amino)-1,7-naphthyridin-3-yl)oxy)methyl)cyclopropane-1-carbonitrile]
39 | 1 to 10 | Clc1ccc(Nc2nccc3cc(OCC4CC4)cnc23)cn1 [Example 255, N-(6-chloropyridin-3-yl)-3-(cyclopropylmethoxy)-1,7-naphthyridin-8-amine]
40 | 1 to 10 | Cc1ccc(Nc2nccc3cc(OCC4CC4)cnc23)cn1 [Example 256, 3-(cyclopropylmethoxy)-N-(6-methylpyridin-3-yl)-1,7-naphthyridin-8-amine]
41 | 1 to 10 | Cc1ncc(Nc2nccc3cc(OCC4CC4)cnc23)cn1 [Example 257, 3-(cyclopropylmethoxy)-N-(2-methylpyrimidin-5-yl)-1,7-naphthyridin-8-amine]
42 | 1 to 10 | Cc1ncc(Nc2nccc3cc(OCc4cnn(C)c4)cnc23)cn1 [Example 258, 3-((1-methyl-1H-pyrazol-4-yl)methoxy)-N-(2-methylpyrimidin-5-yl)-1,7-naphthyridin-8-amine]
